From ChEMBL document CHEMBL3991601, “The target landscape of clinical kinase drugs” (Science, 2017)
The source made the active and inactive calls.

What was measured:
Ephrin type-A receptor 5 = Ephrin type-A receptor 5 (Homo sapiens, UniProt P54756)
[1] = biological target: T1, Probable ATP-dependent RNA helicase DDX6 (Homo sapiens, UniProt P26196)
T1 sequence (P26196 whole entry): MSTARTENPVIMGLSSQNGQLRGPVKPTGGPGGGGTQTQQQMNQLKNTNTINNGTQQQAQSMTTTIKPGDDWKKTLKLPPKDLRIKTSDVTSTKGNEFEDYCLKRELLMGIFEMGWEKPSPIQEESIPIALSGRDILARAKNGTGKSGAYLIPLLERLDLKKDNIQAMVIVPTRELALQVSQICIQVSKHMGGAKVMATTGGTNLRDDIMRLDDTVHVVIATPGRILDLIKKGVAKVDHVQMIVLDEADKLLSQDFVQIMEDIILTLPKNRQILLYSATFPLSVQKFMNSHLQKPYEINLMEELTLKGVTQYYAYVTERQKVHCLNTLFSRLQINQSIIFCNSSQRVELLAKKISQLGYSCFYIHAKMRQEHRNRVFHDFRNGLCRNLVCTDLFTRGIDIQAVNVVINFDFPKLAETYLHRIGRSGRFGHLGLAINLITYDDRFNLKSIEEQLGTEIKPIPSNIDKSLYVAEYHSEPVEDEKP

GTP-binding protein 4 = GTP-binding protein 4 (Homo sapiens, UniProt Q9BZE4)
DNA topoisomerase 2-beta = DNA topoisomerase 2-beta (Homo sapiens, UniProt Q02880)
Sequence of DNA topoisomerase 2-beta (Q02880 whole entry): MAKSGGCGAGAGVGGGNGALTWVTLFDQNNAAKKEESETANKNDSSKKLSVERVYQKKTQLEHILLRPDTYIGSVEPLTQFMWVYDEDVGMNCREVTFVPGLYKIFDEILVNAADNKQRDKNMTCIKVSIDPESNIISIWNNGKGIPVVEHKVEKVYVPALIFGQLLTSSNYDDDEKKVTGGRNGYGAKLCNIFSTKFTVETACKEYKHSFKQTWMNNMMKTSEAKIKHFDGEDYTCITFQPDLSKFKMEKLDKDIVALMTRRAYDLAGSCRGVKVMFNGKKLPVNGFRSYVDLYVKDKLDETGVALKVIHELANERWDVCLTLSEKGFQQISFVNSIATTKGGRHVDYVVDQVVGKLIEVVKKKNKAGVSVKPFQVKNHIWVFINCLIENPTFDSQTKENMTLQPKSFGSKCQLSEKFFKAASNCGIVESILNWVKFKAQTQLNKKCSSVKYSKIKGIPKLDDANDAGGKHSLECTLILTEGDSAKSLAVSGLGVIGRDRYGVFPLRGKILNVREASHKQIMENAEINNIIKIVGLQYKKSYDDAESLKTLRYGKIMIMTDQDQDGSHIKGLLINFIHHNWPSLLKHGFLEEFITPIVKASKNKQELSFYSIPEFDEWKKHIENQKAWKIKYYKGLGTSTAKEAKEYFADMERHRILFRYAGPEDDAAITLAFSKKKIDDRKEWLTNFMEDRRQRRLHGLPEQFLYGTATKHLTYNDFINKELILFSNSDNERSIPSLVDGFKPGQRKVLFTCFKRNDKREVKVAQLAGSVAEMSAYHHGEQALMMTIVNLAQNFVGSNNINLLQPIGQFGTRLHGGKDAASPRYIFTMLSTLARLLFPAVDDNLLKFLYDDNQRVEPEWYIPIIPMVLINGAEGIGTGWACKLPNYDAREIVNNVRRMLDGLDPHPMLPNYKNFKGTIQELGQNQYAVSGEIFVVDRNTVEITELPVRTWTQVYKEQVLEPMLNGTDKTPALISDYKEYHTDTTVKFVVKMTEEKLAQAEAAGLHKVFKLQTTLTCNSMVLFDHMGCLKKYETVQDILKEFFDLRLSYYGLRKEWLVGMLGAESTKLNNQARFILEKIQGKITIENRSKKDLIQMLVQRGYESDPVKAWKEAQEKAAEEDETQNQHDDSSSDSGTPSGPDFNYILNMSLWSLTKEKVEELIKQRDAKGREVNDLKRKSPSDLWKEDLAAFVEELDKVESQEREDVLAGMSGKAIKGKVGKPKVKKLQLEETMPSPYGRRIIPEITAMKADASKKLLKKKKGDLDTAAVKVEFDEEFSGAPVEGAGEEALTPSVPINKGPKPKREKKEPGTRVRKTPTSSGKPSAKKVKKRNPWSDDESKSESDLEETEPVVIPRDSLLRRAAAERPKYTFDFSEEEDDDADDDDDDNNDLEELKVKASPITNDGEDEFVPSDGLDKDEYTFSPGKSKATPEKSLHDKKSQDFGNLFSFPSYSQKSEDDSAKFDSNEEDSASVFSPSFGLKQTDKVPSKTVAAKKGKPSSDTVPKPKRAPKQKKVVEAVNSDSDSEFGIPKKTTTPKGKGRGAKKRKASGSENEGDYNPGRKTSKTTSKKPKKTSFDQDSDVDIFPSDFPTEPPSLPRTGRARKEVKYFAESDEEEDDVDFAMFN

[2] = biological target: BMP-2-inducible protein kinase (Homo sapiens, UniProt Q9NSY1)
[3] = biological target: T2, Serine/threonine-protein kinase ULK3 (Homo sapiens, UniProt Q6PHR2)
T2 sequence (Q6PHR2 whole entry): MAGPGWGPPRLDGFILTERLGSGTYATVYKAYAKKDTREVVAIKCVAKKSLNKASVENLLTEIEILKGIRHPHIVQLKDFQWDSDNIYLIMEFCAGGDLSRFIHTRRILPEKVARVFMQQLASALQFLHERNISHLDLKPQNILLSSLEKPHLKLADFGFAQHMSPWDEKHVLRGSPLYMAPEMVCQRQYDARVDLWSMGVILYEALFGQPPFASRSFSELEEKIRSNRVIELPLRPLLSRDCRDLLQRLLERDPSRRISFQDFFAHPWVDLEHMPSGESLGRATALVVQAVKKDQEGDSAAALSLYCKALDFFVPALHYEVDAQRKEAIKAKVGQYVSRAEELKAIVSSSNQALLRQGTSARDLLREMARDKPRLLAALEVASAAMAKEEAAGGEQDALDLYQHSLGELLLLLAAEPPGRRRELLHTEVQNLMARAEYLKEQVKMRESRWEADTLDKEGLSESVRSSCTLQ

[4] = biological target: Mitogen-activated protein kinase 9 (Homo sapiens, UniProt P45984)
Sequence of Mitogen-activated protein kinase 9 (P45984 whole entry): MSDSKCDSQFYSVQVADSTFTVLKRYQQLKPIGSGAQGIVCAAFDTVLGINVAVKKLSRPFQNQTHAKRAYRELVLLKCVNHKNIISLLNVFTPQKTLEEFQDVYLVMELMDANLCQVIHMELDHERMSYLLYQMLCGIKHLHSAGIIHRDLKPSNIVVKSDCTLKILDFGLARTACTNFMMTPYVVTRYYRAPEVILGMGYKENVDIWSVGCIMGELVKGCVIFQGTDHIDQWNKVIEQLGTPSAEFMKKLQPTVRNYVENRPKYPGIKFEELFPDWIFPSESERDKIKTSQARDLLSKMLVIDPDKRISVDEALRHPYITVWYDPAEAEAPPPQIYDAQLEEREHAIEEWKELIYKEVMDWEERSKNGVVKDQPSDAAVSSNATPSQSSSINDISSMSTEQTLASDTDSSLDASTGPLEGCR

[5] = biological target: Serine/threonine-protein kinase MRCK beta (Homo sapiens, UniProt Q9Y5S2)
Sequence of Serine/threonine-protein kinase MRCK beta (Q9Y5S2 whole entry): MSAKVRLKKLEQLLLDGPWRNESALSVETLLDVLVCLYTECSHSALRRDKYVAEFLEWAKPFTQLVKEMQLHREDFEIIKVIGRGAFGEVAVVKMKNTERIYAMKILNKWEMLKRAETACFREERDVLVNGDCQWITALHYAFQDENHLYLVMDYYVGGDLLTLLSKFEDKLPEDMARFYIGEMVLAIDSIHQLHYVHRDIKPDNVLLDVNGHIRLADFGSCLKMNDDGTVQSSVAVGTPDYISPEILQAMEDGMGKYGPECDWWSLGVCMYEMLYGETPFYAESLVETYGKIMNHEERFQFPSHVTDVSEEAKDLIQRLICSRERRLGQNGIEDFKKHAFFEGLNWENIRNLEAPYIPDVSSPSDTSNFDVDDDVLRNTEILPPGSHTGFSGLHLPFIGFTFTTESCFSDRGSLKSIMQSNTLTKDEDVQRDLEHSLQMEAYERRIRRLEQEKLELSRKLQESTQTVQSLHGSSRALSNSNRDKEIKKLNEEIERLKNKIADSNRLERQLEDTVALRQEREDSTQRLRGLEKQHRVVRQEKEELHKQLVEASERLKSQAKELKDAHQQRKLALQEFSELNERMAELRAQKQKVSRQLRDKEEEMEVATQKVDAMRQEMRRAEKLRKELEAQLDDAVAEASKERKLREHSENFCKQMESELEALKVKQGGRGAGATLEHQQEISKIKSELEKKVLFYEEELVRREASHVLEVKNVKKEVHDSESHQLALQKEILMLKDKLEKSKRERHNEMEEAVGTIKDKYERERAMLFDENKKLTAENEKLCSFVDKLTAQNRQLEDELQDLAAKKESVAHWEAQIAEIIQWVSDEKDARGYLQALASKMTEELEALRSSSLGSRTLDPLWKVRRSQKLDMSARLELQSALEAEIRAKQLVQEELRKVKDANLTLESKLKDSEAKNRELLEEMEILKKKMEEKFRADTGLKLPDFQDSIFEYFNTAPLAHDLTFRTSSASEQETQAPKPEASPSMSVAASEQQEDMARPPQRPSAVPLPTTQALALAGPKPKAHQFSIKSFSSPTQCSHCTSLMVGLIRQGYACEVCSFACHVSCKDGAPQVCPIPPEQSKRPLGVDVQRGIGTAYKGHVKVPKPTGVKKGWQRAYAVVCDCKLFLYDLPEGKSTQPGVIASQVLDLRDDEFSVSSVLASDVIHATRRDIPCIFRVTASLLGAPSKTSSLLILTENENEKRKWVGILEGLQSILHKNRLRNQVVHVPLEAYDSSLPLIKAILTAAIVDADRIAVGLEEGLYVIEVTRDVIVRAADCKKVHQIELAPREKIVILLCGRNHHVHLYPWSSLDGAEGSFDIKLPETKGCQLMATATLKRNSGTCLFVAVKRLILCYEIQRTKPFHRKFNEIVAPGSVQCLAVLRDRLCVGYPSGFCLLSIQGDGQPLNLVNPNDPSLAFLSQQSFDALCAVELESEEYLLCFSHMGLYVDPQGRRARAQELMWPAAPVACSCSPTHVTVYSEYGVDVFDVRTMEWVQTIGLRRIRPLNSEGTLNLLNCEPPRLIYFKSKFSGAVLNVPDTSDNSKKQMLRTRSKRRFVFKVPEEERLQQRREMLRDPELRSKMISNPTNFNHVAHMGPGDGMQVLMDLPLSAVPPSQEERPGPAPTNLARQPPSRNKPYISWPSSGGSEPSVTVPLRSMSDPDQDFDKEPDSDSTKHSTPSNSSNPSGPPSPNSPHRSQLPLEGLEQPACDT

[6] = biological target: T3, Tyrosine--tRNA ligase, cytoplasmic (Homo sapiens, UniProt P54577)
T3 sequence (P54577 whole entry): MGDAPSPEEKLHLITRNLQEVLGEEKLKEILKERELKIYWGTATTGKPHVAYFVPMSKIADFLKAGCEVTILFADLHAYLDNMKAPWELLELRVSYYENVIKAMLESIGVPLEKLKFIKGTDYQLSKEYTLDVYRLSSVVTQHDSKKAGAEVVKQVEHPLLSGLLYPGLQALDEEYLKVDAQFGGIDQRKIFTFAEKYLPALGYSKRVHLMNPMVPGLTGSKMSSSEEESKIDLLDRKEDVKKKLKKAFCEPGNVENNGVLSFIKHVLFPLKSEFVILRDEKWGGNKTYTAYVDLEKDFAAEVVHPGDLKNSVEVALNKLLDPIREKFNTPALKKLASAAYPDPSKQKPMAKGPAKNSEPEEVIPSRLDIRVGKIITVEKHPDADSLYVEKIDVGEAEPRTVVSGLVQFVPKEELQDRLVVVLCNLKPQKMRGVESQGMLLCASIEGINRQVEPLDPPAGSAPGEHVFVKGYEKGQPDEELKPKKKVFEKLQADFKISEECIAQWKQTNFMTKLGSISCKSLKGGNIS

[7] = biological target: Atypical kinase COQ8A, mitochondrial (Homo sapiens, UniProt Q8NI60)
[8] = biological target: T4, Serine/threonine-protein kinase PLK4 (Homo sapiens, UniProt O00444)
T4 sequence (O00444 whole entry): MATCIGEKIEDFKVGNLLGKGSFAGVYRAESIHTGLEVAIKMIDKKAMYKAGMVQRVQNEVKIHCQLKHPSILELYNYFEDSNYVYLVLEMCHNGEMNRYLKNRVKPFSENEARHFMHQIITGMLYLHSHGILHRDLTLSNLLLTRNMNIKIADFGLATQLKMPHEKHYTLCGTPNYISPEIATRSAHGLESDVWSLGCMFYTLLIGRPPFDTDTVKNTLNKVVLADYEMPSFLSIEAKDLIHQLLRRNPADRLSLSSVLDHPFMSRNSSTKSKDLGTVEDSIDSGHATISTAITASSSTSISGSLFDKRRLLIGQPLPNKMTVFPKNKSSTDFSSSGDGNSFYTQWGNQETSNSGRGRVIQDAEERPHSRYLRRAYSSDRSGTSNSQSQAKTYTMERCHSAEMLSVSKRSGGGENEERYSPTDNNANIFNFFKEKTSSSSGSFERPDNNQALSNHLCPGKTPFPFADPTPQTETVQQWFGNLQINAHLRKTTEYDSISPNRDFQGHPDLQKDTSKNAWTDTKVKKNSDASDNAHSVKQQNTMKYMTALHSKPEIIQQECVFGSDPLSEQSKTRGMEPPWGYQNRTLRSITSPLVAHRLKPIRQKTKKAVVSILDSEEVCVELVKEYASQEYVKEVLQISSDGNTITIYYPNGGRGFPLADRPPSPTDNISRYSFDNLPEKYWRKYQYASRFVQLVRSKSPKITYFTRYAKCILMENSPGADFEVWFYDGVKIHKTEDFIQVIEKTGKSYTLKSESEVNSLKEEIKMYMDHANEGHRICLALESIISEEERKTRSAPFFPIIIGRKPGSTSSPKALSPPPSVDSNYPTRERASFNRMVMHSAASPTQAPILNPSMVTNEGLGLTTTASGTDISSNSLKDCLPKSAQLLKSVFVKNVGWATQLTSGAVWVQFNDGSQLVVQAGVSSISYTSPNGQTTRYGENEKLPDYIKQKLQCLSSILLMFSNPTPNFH
Note: in the data inactive means no Kd found up to 30 µM.

Sequence of Ephrin type-A receptor 5 (P54756 whole entry): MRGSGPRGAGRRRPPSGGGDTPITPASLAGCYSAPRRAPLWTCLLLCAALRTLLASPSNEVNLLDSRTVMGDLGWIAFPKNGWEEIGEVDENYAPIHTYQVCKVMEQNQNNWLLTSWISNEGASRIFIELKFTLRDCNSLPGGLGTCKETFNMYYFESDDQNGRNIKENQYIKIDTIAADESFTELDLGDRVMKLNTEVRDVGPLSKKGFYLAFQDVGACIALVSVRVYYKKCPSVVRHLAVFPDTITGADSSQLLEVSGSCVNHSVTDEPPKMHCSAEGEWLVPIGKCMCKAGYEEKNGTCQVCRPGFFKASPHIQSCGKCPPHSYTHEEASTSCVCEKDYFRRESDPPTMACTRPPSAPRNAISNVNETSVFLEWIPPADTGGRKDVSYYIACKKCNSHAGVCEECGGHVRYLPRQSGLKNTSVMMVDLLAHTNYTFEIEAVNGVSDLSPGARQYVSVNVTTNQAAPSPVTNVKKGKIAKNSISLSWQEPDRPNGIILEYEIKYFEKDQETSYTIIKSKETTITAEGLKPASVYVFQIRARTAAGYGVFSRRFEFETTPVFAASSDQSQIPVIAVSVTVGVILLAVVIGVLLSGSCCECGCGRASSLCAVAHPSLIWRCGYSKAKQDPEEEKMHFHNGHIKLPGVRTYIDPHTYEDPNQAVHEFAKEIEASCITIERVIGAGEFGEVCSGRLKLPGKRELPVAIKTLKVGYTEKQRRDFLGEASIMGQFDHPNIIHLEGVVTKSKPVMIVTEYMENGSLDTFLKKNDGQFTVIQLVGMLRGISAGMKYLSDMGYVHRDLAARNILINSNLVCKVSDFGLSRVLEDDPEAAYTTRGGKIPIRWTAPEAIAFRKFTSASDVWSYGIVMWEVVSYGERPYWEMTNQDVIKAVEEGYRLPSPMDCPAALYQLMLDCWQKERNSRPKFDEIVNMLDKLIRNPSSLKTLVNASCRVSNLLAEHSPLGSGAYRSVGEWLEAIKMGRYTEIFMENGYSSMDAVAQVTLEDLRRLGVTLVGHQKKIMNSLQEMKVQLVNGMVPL

| SMILES | Kd (Ephrin type-A receptor 5) | Kd [1] | Kd (GTP-binding protein 4) | Kd (DNA topoisomerase 2-beta) | Kd [2] | Kd [3] | Kd [4] | Kd [5] | Kd [6] | Kd [7] | Kd [8] |
| --- | --- | --- | --- | --- | --- | --- | --- | --- | --- | --- | --- |
| C[C@@H](Oc1cc(C(=O)Nc2ccc(C(=O)N3CCN(C)CC3)cc2)nnc1N)c1c(Cl)ccc(F)c1Cl | > 30 µM (inactive) | > 30 µM (inactive) | > 30 µM (inactive) | > 30 µM (inactive) | > 30 µM (inactive) | > 30 µM (inactive) | > 30 µM (inactive) | > 30 µM (inactive) | > 30 µM (inactive) | > 30 µM (inactive) | > 30 µM (inactive) |
| C[C@H]1CNCCCN1S(=O)(=O)c1cccc2cncc(F)c12 | > 30 µM (inactive) | > 30 µM (inactive) |  | > 30 µM (inactive) | > 30 µM (inactive) | > 30 µM (inactive) | > 30 µM (inactive) | > 30 µM (inactive) |  | > 30 µM (inactive) | 8.14 µM (active) |
| CC(=O)c1cnc2ccc(-c3cc(Cl)c(O)c(Cl)c3)nc2c1N[C@H]1CC[C@H](CN(C)C)CC1 | 0.075 µM (active) | > 30 µM (inactive) | > 30 µM (inactive) | > 30 µM (inactive) | 0.245 µM (active) |  | 0.364 µM (active) | > 30 µM (inactive) | > 30 µM (inactive) | > 30 µM (inactive) |  |
| CCNC(=O)C#Cc1ccc2c(c1)NC(=O)/C2=C(\Nc1ccc(CN(C)C)cc1)c1ccccc1 | > 30 µM (inactive) | > 30 µM (inactive) |  | > 30 µM (inactive) | > 30 µM (inactive) | 0.612 µM (active) | > 30 µM (inactive) | > 30 µM (inactive) | > 30 µM (inactive) | > 30 µM (inactive) | 0.333 µM (active) |
| Nc1ncnc2c1c(-c1cccc(OCc3ccccc3)c1)cn2[C@H]1C[C@@H](CN2CCC2)C1 [AEW-541] | > 30 µM (inactive) | > 30 µM (inactive) |  | > 30 µM (inactive) | > 30 µM (inactive) | > 30 µM (inactive) | > 30 µM (inactive) | > 30 µM (inactive) | > 30 µM (inactive) | 0.835 µM (active) | > 30 µM (inactive) |
| COc1cc(Nc2ncc3c(n2)-c2ccc(Cl)cc2C(c2c(F)cccc2OC)=NC3)ccc1C(=O)O [ALISERTIB] | > 30 µM (inactive) | > 30 µM (inactive) | > 30 µM (inactive) | > 30 µM (inactive) | > 30 µM (inactive) |  |  | > 30 µM (inactive) | > 30 µM (inactive) | > 30 µM (inactive) |  |
| Cc1nc(NC(=O)N2CCC[C@H]2C(N)=O)sc1-c1ccnc(C(C)(C)C(F)(F)F)c1 [ALPELISIB] | > 30 µM (inactive) | > 30 µM (inactive) | > 30 µM (inactive) | > 30 µM (inactive) | > 30 µM (inactive) | > 30 µM (inactive) | > 30 µM (inactive) | > 30 µM (inactive) | > 30 µM (inactive) | > 30 µM (inactive) | > 30 µM (inactive) |
